Measurements as given in ChEMBL document CHEMBL1201862, “PubChem BioAssay data set” (2004).
The source made the active and inactive calls.

How the values were obtained:
[1] = biological target: Wee1-like protein kinase (Homo sapiens, UniProt P30291); assay: G2/M cell cycle arrest in HeLa, late-stage follow-up, mechanism study for Wee1 degradation inhibitor project, FACS, panel member Wee1 Degradation (AID 2088)
[2] = biological target: G2/mitotic-specific cyclin-B1 (Homo sapiens, UniProt P14635); assay: G2/M cell cycle arrest in HeLa, late-stage follow-up, mechanism study for Wee1 degradation inhibitor project, FACS, panel member Cyclin B Degradation (AID 2088)
[3] = biological target: Sphingosine 1-phosphate receptor 4 (Homo sapiens, UniProt O95977); assay: S1P4 receptor agonists, human, late-stage follow-up, cell-based, fluorescence, synthesized compounds (AID 463107); format: functional
[4] = biological target: T1, Intestinal-type alkaline phosphatase (Homo sapiens, UniProt P09923); assay: human intestinal alkaline phosphatase activators, dose response, biochemical, luminescence, uHTS hits (AID 463120); format: functional
[5] = biological target: T1, Intestinal-type alkaline phosphatase; assay: human IAP activators, dose response, biochemical, luminescent, uHTS hits, set 2 (AID 488817); format: functional;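 further: potency of activators that raise enzyme activity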
[6] = biological target: T2, Alkaline phosphatase, tissue-nonspecific isozyme (Homo sapiens, UniProt P05186); assay: TNAP enzyme activators, dose response, selectivity assay for human IAP activator project, biochemical, TNAP isozyme, human IAP uHTS hits (AID 488886); format: functional;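 further: potency of compounds raising TNAP activity as a selectivity check on IAP activators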
T2 sequence (P05186 whole entry): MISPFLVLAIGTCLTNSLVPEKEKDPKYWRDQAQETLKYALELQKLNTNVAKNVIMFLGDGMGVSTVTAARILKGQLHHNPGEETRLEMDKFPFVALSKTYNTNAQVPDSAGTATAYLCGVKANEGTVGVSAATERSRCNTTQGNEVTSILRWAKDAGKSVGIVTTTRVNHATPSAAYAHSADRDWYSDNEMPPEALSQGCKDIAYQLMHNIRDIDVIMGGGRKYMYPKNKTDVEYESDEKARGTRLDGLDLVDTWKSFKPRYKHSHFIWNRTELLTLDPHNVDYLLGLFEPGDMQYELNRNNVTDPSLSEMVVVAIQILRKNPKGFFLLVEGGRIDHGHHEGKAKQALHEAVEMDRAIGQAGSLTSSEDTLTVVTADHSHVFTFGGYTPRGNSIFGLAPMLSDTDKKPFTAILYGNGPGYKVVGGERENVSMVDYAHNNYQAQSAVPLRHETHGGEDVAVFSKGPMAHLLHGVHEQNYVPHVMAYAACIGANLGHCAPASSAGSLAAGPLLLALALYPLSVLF

[7] = biological target: T3, Intestinal-type alkaline phosphatase (Mus musculus, UniProt P24822); assay: PubChem AID 488875; format: functional
[8] = biological target: T3, Intestinal-type alkaline phosphatase; assay: PubChem AID 488874; format: functional
[9] = biological target: NACHT, LRR and PYD domains-containing protein 3 (Homo sapiens, UniProt Q96P20); assay: NALP3 inhibitors in yeast, dose response, luminescent (AID 488799); format: functional
[10] = biological target: Voltage-dependent T-type calcium channel subunit alpha-1H (Homo sapiens, UniProt O95180); assay: Cav3.2 T-type channel inhibitors, cell-based, synthetic library set 1, calcium flux (AID 493022); format: functional
[11] = biological target: Melanin-concentrating hormone receptor 1 (Homo sapiens, UniProt Q99705); assay: Late-stage fluorescence-based counterscreen for antagonists of the G-protein coupled receptor 7 (GPR7): cell-based dose response assay to identify antagonists of the melanin-concentrating hormone receptor 1 (MCHR1). [Related pubchem assays (depositor defined):AID1861, AID1880, AID1952, AID2148, AID2251, AID2257, AID485339]; format: functional;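 further: stimulated with 30 nM MCH peptide agonist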
[12] = biological target: Neuropeptides B/W receptor type 1 (Homo sapiens, UniProt P48145); assay: GPR7 antagonist potency, late-stage follow-up, cell-based, fluorescence, dose response (AID 463251); format: functional
[13] = system: J774.A1; assay: Confirmation of image-based Screening Assay for Inhibitors of Phagocytosis. [Related pubchem assays (depositor defined):AID1029, AID1643]; format: functional, cell-based; settings: Mus musculus

T1 sequence (P09923 whole entry): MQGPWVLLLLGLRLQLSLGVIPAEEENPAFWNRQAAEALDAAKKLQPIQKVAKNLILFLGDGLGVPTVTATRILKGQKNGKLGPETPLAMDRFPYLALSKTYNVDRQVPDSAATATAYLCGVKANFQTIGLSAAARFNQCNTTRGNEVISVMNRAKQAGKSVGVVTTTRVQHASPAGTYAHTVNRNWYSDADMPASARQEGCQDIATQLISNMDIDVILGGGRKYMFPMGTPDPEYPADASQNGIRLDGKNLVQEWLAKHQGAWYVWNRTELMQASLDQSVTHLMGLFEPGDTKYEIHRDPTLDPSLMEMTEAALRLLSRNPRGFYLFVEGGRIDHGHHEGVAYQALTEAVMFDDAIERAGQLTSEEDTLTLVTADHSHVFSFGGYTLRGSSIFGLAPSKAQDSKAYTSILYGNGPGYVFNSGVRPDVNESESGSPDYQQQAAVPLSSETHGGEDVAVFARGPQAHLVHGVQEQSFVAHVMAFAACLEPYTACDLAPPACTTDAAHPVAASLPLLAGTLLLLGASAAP
T3 sequence (P24822 whole entry): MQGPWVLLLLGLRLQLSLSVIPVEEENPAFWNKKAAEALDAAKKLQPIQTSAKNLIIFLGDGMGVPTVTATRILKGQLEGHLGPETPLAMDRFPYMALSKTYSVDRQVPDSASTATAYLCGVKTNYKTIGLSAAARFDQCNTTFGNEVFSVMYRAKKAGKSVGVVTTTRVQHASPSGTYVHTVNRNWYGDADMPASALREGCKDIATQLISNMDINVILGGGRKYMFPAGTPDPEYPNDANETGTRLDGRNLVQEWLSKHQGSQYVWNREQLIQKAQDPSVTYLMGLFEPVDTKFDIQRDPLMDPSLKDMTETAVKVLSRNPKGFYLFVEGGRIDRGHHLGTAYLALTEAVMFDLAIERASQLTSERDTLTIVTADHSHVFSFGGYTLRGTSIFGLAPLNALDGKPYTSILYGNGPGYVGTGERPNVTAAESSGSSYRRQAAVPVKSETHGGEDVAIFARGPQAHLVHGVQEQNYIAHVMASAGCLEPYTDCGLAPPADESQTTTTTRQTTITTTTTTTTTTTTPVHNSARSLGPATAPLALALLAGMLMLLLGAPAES
Chain of Neuropeptides B/W receptor type 1 (P48145 whole entry): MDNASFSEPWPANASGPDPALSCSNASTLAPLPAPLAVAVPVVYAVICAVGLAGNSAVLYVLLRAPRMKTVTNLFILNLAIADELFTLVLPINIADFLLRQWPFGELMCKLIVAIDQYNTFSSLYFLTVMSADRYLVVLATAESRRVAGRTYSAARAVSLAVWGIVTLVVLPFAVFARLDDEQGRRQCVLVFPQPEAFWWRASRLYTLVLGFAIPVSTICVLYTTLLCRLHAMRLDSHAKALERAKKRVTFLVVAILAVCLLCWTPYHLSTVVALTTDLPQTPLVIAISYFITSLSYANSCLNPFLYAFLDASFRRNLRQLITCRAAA
Chain of NACHT, LRR and PYD domains-containing protein 3 (Q96P20 whole entry, the tested form may be a part): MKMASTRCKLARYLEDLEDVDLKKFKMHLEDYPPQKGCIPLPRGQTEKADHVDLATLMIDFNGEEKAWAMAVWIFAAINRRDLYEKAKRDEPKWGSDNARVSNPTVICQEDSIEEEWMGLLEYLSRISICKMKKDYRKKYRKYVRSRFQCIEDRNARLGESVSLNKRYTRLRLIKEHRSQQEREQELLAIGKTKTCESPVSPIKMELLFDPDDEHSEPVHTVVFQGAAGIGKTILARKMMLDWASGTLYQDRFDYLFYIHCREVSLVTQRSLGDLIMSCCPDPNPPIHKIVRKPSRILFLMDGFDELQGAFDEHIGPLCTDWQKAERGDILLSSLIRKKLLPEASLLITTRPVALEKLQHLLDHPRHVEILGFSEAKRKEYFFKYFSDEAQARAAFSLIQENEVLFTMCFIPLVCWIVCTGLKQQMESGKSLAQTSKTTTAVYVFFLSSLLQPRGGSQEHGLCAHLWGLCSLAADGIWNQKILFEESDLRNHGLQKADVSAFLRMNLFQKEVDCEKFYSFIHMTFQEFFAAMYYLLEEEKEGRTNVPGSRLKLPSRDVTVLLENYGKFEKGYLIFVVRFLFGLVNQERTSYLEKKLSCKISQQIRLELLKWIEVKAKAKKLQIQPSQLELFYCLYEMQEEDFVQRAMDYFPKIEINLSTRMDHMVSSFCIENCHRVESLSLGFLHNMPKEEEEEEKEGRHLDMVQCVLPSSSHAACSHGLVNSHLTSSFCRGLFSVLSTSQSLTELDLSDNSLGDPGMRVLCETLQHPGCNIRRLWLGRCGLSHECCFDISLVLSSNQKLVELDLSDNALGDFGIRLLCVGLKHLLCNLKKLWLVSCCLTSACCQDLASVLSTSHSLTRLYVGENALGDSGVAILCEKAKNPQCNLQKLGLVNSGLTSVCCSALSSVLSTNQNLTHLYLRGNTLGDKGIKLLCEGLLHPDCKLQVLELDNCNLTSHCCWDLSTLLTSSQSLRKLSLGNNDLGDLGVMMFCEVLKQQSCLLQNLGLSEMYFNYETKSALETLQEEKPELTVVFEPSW
Chain of Wee1-like protein kinase (P30291 whole entry): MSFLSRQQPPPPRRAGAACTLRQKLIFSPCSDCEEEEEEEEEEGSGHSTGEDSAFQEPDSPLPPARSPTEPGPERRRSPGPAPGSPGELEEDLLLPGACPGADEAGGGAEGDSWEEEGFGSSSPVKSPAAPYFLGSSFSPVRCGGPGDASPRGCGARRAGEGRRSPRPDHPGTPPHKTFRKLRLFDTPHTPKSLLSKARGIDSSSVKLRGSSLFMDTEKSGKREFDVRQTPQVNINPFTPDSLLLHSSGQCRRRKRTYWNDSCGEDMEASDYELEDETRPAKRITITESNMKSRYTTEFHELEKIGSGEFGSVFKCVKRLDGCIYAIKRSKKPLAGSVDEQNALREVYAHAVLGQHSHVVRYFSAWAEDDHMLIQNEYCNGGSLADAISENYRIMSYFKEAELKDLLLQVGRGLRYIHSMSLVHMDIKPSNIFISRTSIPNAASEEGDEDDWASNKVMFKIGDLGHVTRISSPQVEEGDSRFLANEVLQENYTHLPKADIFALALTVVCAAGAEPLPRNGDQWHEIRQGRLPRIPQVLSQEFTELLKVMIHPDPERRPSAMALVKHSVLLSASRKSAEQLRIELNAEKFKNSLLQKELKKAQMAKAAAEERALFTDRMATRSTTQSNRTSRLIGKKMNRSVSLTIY
Chain of Sphingosine 1-phosphate receptor 4 (O95977 whole entry): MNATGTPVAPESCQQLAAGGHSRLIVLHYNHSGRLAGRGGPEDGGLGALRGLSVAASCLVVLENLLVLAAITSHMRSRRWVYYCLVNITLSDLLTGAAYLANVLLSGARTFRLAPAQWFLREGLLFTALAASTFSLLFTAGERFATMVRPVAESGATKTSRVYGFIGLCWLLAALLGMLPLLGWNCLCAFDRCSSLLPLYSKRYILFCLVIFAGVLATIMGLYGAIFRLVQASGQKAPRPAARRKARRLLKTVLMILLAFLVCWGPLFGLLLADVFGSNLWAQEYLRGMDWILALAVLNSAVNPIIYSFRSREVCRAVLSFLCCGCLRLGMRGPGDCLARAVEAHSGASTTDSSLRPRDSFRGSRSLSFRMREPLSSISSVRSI
Chain of G2/mitotic-specific cyclin-B1 (P14635 whole entry): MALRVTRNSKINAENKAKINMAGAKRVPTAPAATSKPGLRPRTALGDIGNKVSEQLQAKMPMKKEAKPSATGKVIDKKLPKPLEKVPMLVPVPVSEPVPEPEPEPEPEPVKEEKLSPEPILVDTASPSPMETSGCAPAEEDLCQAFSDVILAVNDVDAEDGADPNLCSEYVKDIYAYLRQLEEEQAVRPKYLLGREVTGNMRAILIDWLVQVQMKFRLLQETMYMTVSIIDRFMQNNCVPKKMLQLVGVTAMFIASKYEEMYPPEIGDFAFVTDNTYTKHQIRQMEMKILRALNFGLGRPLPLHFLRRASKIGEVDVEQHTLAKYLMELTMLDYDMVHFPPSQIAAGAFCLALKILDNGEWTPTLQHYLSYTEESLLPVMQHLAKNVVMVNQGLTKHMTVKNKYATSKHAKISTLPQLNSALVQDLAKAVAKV
Chain of Melanin-concentrating hormone receptor 1 (Q99705 whole entry): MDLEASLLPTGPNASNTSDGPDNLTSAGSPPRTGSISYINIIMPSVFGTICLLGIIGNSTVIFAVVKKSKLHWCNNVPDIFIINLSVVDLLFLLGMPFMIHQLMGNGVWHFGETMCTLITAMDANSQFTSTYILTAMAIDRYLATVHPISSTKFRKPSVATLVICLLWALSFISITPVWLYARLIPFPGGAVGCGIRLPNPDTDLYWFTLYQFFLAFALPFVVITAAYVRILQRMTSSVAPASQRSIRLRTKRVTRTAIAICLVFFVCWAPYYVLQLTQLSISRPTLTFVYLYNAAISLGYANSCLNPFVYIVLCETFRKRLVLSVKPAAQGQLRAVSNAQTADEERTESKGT

Question: With `Cc1cc(O)nc(-n2nc(C)cc2NC(=O)/C=C/c2ccccc2)n1` as the molecule, how does the EC50 [1] read?
Answer: Its EC50 is > 16.6 µM (active).

Question: And the EC50 [2]?
Answer: Its EC50 is > 49.7 µM (inactive).

Question: `Cc1ccc(OCCOc2ccc(Oc3ccccc3)cc2)c([N+](=O)[O-])n1` was tested. Which EC50 [3] did it give?
Answer: Its EC50 is > 50 µM (inactive).

Question: With `CC(C)Oc1ccc(C(=O)Nc2nnc[nH]2)cc1` as the molecule, how does the EC50 [4] read?
Answer: The EC50 was 11.4 µM (active).

Question: And the EC50 [5]?
Answer: Its EC50 is 33 µM (active).

Question: What about the EC50 [6] of the same molecule?
Answer: The EC50 was 22.9 µM (active).

Question: And the EC50 [7]?
Answer: The EC50 was > 100 µM (inactive).

Question: What does the source list for `O=C(NNC(=S)NC(=O)c1ccccc1)c1cccnc1`?
Answer: EC50 [4]: 12.1 µM (active); EC50 [5]: 16.4 µM (active); IC50 [8]: 74.2 µM (active); EC50 [6]: 16.4 µM (active)

Question: How did the IC50 [9] turn out when `Cc1csc2nc(O)c(C(=O)NCCC3=CCCCC3)c(=O)n12` was run?
Answer: The IC50 was 4.07 µM (active).

Question: How did the EC50 [10] turn out when `CC(Oc1ccccc1)C(=O)Nc1nnc(-c2ccc3c(c2)OCO3)o1` (stereo unspecified) was run?
Answer: The EC50 was 10 µM (active).

Question: Which results are given for `COc1ccc(Oc2cnn(-c3ccc(C)cc3)c(=O)c2Cl)cc1`?
Answer: IC50 [11]: 12.6 µM (inactive); IC50 [12]: 7 µM (active)

Question: How did the IC50 [13] turn out when `Cc1ccc(Nc2nc(-c3c(C)nc4ccccn34)cs2)cc1` was run?
Answer: The IC50 was < 0.05 µM (inactive).
